How the values were obtained:
[1] = target: Tyrosine-protein kinase ABL1 (Homo sapiens, UniProt P00519); settings: read-out: Kd(app)
[2] = target: AP2-associated protein kinase 1 (Homo sapiens) (UniProt Q2M2I8); also: assay method not described here
[3] = target: Acyl-CoA dehydrogenase family member 10 (Homo sapiens) (UniProt Q6JQN1); also: assay method not described here
[4] = target: Fatty acid CoA ligase Acsl3 (Homo sapiens) (UniProt O95573); also: assay method not described here
[5] = target: Proteasomal ubiquitin receptor ADRM1 (Homo sapiens) (UniProt Q16186); also: assay method not described here
[6] = target: Aminoacyl tRNA synthase complex-interacting multifunctional protein 2 (Homo sapiens) (UniProt Q13155); also: assay method not described here
[7] = target: ATPase family AAA domain-containing protein 3B (Homo sapiens) (UniProt Q5T9A4); also: assay method not described here
[8] = target: ATP synthase peripheral stalk subunit d, mitochondrial (Homo sapiens) (UniProt O75947); also: assay method not described here
[9] = target: Calcium/calmodulin-dependent protein kinase type II subunit delta (Homo sapiens) (UniProt Q13557); also: assay method not described here
[10] = target: Cullin-associated NEDD8-dissociated protein 1 (Homo sapiens) (UniProt Q86VP6); also: assay method not described here
[11] = target: Cyclin-dependent kinase 3 (Homo sapiens) (UniProt Q00526); also: assay method not described here
[12] = target: Cyclin-dependent kinase 4 (Homo sapiens) (UniProt P11802); also: assay method not described here
[13] = target: Cyclin-dependent kinase 5 (Homo sapiens) (UniProt Q00535); also: assay method not described here
[14] = target: Eukaryotic translation initiation factor 3 subunit E (Homo sapiens) (UniProt P60228); also: assay method not described here
[15] = target: Aromatic-L-amino-acid decarboxylase (Homo sapiens) (UniProt P20711); also: assay method not described here
[16] = target: Deoxyribose-phosphate aldolase (Homo sapiens) (UniProt Q9Y315); also: assay method not described here
[17] = target: Desmoplakin (Homo sapiens) (UniProt P15924); also: assay method not described here
[18] = target: Bifunctional glutamate/proline--tRNA ligase (Homo sapiens) (UniProt P07814); also: assay method not described here
[19] = target: Extended synaptotagmin-1 (Homo sapiens) (UniProt Q9BSJ8); also: assay method not described here
[20] = target: Glutaryl-CoA dehydrogenase, mitochondrial (Homo sapiens) (UniProt Q92947); also: assay method not described here
[21] = target: Histone acetyltransferase type B catalytic subunit (Homo sapiens) (UniProt O14929); also: assay method not described here
[22] = target: Histone deacetylase 2 (Homo sapiens) (UniProt Q92769); also: assay method not described here
[23] = target: Histone H1.4 (Homo sapiens) (UniProt P10412); also: assay method not described here
[24] = target: High mobility group protein B1 (Homo sapiens) (UniProt P09429); also: assay method not described here
[25] = target: Heterogeneous nuclear ribonucleoprotein U-like protein 2 (Homo sapiens) (UniProt Q1KMD3); also: assay method not described here
[26] = target: Interleukin-1 receptor-associated kinase 1 (Homo sapiens) (UniProt P51617); also: assay method not described here
[27] = target: Importin subunit alpha-1 (Homo sapiens) (UniProt P52292); also: assay method not described here
[28] = target: LIM and SH3 domain protein 1 (Homo sapiens) (UniProt Q14847); also: assay method not described here
[29] = target: LIM domain kinase 2 (Homo sapiens) (UniProt P53671); also: assay method not described here
[30] = target: Mitogen-activated protein kinase kinase kinase 1 (Homo sapiens) (UniProt Q13233); also: assay method not described here
[31] = target: DNA replication licensing factor MCM6 (Homo sapiens) (UniProt Q14566); also: assay method not described here
[32] = target: CDK-activating kinase assembly factor MAT1 (Homo sapiens) (UniProt P51948); also: assay method not described here
[33] = target: Serine/threonine-protein kinase Nek3 (Homo sapiens) (UniProt P51956); also: assay method not described here
[34] = target: Nucleoside diphosphate kinase A (Homo sapiens) (UniProt P15531); also: assay method not described here
[35] = target: Pyruvate dehydrogenase E1 component subunit beta, mitochondrial (Homo sapiens) (UniProt P11177); also: assay method not described here
[36] = target: Phosphorylase kinase beta subunit (Homo sapiens) (UniProt Q93100); also: assay method not described here
[37] = target: Phosphatidylinositol transfer protein beta isoform (Homo sapiens) (UniProt P48739); also: assay method not described here
[38] = target: Protein kinase C theta type (Homo sapiens) (UniProt Q04759); also: assay method not described here
[39] = target: 26S proteasome non-ATPase regulatory subunit 12 (Homo sapiens) (UniProt O00232); also: assay method not described here
[40] = target: Receptor-interacting serine/threonine-protein kinase 2 (Homo sapiens) (UniProt O43353); also: assay method not described here
[41] = target: Small ribosomal subunit protein uS19 (Homo sapiens) (UniProt P62841); also: assay method not described here
[42] = target: Small ribosomal subunit protein uS10 (Homo sapiens) (UniProt P60866); also: assay method not described here
[43] = target: Small ribosomal subunit protein eS6 (Homo sapiens) (UniProt P62753); also: assay method not described here
[44] = target: S-phase kinase-associated protein 2 (Homo sapiens) (UniProt Q13309); also: assay method not described here
[45] = target: Serine/arginine-rich splicing factor 1 (Homo sapiens) (UniProt Q07955); also: assay method not described here
[46] = target: Heterogeneous nuclear ribonucleoprotein Q (Homo sapiens) (UniProt O60506); also: assay method not described here

Sequence of CDK-activating kinase assembly factor MAT1 (Homo sapiens) (P51948 whole entry): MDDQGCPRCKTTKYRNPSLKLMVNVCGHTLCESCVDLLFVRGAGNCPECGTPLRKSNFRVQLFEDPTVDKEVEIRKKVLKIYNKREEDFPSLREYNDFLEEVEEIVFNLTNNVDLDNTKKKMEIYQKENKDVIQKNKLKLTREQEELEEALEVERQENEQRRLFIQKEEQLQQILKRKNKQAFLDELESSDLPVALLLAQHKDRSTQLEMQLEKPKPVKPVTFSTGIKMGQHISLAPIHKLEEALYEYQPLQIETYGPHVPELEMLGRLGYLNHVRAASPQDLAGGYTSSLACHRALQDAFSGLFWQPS
Sequence of Histone deacetylase 2 (Homo sapiens) (Q92769 whole entry): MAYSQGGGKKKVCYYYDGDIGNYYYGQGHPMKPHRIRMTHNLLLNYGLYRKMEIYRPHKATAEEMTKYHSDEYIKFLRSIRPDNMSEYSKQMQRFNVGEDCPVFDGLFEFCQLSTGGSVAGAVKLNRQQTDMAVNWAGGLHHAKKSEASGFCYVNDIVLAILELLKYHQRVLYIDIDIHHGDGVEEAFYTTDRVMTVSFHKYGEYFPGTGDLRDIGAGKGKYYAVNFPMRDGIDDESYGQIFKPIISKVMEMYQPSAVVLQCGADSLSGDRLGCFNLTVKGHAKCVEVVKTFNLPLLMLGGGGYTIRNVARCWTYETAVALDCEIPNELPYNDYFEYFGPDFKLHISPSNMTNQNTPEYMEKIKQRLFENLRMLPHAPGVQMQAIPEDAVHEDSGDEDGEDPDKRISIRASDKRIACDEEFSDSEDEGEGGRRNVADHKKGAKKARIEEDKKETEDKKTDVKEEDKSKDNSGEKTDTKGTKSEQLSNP
Sequence of Extended synaptotagmin-1 (Homo sapiens) (Q9BSJ8 whole entry): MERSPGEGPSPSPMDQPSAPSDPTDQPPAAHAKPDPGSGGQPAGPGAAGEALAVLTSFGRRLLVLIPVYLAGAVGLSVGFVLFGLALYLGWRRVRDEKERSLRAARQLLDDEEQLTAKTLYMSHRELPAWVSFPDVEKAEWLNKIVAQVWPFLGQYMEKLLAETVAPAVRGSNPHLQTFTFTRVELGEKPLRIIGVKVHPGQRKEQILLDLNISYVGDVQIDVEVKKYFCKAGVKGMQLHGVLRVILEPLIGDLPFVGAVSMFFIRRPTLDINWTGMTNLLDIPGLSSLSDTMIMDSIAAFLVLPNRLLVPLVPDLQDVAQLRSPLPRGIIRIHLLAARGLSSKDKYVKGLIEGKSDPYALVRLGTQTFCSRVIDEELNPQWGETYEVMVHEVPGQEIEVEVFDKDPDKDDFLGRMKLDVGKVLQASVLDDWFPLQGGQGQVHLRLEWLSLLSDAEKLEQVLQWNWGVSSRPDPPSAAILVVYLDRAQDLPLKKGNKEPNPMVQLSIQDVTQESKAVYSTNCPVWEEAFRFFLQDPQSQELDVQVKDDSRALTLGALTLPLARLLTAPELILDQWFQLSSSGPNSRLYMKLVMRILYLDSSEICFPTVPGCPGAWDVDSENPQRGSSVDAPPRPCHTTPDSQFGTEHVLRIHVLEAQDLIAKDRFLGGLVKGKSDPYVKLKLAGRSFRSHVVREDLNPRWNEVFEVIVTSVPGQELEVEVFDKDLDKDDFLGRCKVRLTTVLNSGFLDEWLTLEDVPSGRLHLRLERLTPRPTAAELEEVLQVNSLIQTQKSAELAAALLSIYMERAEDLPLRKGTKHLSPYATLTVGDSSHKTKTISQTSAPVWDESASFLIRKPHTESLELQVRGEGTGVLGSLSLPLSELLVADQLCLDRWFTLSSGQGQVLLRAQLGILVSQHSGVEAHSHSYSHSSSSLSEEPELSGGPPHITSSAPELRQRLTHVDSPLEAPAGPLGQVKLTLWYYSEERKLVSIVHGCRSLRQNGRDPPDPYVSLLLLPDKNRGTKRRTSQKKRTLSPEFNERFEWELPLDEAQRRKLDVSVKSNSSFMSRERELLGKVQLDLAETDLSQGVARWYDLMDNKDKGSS
Sequence of Cyclin-dependent kinase 5 (Homo sapiens) (Q00535 whole entry, looked up): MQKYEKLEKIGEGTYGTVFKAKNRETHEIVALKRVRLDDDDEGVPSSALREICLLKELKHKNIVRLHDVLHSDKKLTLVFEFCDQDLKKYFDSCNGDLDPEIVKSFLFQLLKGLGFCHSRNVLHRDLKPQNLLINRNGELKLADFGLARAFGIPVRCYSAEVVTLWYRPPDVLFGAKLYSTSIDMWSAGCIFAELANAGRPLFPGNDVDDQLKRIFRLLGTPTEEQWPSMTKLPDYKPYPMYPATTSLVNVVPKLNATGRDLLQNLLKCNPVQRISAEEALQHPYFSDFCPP
Sequence of Tyrosine-protein kinase ABL1 (P00519 whole entry): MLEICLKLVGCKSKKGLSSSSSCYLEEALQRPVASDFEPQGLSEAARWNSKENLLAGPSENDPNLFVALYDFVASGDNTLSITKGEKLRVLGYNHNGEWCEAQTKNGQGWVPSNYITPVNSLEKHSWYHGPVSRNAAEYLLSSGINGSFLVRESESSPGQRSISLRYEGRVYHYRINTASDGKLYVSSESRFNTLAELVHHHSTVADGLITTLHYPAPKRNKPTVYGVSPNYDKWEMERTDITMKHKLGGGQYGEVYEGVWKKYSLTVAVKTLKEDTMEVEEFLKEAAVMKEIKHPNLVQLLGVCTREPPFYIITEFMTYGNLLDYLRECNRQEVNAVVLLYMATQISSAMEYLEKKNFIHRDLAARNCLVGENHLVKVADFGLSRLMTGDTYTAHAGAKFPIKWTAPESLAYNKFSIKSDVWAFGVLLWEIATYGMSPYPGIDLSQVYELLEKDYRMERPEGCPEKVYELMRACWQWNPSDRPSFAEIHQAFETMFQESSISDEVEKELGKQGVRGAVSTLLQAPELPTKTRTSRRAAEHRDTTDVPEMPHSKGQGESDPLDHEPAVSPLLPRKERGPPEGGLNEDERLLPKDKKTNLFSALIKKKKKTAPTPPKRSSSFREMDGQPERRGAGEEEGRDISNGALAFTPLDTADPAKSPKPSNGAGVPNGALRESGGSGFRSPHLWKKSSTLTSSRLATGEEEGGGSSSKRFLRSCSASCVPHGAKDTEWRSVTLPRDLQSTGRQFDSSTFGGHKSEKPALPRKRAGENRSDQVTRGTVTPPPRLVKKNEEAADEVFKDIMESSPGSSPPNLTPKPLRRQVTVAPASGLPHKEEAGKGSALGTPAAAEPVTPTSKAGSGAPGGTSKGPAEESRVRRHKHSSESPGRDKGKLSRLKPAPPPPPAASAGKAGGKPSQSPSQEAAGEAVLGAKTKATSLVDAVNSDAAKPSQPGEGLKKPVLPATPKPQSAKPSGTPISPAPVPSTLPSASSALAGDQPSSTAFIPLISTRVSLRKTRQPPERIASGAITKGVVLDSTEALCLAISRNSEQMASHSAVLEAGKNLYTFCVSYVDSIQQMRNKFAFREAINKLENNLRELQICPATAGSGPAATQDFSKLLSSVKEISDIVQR
Sequence of Aminoacyl tRNA synthase complex-interacting multifunctional protein 2 (Homo sapiens) (Q13155 whole entry, the tested form may be a part, one chain of several): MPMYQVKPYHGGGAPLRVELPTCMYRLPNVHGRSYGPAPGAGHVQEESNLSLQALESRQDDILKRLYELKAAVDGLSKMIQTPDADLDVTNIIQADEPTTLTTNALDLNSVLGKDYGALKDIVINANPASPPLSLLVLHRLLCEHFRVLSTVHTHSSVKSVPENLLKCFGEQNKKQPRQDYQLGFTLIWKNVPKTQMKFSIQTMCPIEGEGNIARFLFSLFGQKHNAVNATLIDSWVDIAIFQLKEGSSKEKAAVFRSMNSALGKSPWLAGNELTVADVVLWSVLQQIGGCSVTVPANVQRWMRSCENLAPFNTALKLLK
Sequence of Eukaryotic translation initiation factor 3 subunit E (Homo sapiens) (P60228 whole entry): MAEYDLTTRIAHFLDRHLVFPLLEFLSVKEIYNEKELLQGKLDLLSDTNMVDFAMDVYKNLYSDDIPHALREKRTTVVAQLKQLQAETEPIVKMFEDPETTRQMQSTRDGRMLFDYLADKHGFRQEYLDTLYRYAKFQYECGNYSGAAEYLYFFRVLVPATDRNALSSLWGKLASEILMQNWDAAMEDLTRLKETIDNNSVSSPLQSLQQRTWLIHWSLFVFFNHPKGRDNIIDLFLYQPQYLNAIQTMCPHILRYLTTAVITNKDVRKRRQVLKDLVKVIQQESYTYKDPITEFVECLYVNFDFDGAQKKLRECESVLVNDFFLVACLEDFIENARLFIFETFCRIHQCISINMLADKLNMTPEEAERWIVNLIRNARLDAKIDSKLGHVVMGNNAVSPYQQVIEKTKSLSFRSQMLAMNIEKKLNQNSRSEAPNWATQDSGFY
Sequence of High mobility group protein B1 (Homo sapiens) (P09429 whole entry): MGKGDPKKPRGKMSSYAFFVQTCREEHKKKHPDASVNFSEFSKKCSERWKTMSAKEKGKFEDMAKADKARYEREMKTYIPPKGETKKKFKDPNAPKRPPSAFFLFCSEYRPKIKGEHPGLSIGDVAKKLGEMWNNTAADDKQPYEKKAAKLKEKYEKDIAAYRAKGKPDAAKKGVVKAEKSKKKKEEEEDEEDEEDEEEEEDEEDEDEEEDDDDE
Sequence of LIM domain kinase 2 (Homo sapiens) (P53671 whole entry, looked up, the tested form may be a part): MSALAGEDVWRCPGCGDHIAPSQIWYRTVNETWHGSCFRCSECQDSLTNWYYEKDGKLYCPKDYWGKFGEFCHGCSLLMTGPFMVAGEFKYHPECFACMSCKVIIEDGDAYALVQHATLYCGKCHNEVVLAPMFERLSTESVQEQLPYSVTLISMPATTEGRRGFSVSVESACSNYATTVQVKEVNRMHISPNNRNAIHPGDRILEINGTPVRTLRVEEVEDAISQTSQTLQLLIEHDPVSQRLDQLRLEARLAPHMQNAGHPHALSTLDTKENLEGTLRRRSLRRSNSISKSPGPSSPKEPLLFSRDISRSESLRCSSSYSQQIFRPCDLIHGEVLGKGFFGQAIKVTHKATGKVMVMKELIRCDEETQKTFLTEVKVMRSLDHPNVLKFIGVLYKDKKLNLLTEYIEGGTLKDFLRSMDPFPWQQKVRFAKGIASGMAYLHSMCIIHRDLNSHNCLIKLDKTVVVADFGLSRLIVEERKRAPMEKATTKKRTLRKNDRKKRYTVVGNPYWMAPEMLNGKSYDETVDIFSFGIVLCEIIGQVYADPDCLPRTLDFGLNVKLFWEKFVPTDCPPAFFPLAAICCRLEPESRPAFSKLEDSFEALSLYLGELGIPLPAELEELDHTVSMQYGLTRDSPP

In the case of Cc1ccc(C(=O)Nc2cccc(C(F)(F)F)c2)cc1Nc1nc(-c2cccnc2)nc2c1cnn2C, the Kd [1] is reported as 0.91 µM, the ED50 [2] is reported as 6.19 µM and the ED50 [3] is reported as 11.5 µM. The ED50 [4] was 5.73 µM, the ED50 [5] was 7.09 µM and the ED50 [6] was 0.00534 µM. It also gave an ED50 [7] of 0.0809 µM, an ED50 [8] of 0.0727 µM and an ED50 [9] of 0.11 µM. It also gave an ED50 [10] of 0.11 µM, an ED50 [11] of 0.134 µM and an ED50 [12] of 0.000606 µM. It also gave an ED50 [13] of 5.06 µM, an ED50 [14] of 24.5 µM and an ED50 [15] of 0.0409 µM. It also gave an ED50 [16] of 3.14 µM, an ED50 [17] of 22.3 µM and an ED50 [18] of 0.0324 µM. For the same compound, the ED50 [19] was 0.00937 µM, the ED50 [20] was 7.4 µM and the ED50 [21] was 0.183 µM. The ED50 [22] was 18.9 µM, the ED50 [23] was 62.9 µM and the ED50 [24] was 3.01 µM. It also gave an ED50 [25] of 32000 µM, an ED50 [26] of 14.6 µM and an ED50 [27] of 7.33 µM. It also gave an ED50 [28] of 0.00467 µM, an ED50 [29] of 2.57 µM and an ED50 [30] of 6.12 µM. For the same compound, the ED50 [31] was 11.1 µM, the ED50 [32] was 0.00972 µM and the ED50 [33] was 4.18 µM. It also gave an ED50 [34] of 7.65 µM, an ED50 [35] of 3.33 µM and an ED50 [36] of 12.8 µM. For the same compound, the ED50 [37] was 1.71 µM, the ED50 [38] was 0.00259 µM and the ED50 [39] was 3.2 µM. For the same compound, the ED50 [40] was 29.5 µM, the ED50 [41] was 4.04 µM and the ED50 [42] was 0.371 µM. The ED50 [43] was 0.0144 µM, the ED50 [44] was 4.82 µM and the ED50 [45] was 9.12 µM. The ED50 [46] was 0.0225 µM.
Cc1ccc(C(=O)Nc2cccc(C(F)(F)F)c2)cc1Nc1nc(-c2cccnc2)nc2nn(C)cc12 showed a Kd [1] of 0.732 µM, an ED50 [2] of 1560 µM and an ED50 [3] of 0.434 µM. It also gave an ED50 [4] of 37.2 µM, an ED50 [5] of 0.0135 µM and an ED50 [6] of 0.0495 µM. It also gave an ED50 [7] of 0.0188 µM, an ED50 [8] of 0.0557 µM and an ED50 [9] of 0.0386 µM. It also gave an ED50 [10] of 1.74 µM, an ED50 [11] of 511 µM and an ED50 [12] of 10.1 µM. For the same compound, the ED50 [13] was 17.2 µM, the ED50 [14] was 0.512 µM and the ED50 [15] was 1.52 µM. For the same compound, the ED50 [16] was 2.45 µM, the ED50 [17] was 0.288 µM and the ED50 [18] was 1.21 µM. It also gave an ED50 [19] of 6850 µM, an ED50 [20] of 0.169 µM and an ED50 [21] of 0.0527 µM. It also gave an ED50 [22] of 0.0881 µM, an ED50 [23] of 5.19 µM and an ED50 [24] of 0.0503 µM. For the same compound, the ED50 [25] was 0.175 µM, the ED50 [26] was 0.0479 µM and the ED50 [27] was 0.00566 µM. The ED50 [28] was 109 µM, the ED50 [29] was 1.38 µM and the ED50 [30] was 3.34 µM. It also gave an ED50 [31] of 0.343 µM, an ED50 [32] of 3.4 µM and an ED50 [33] of 10.7 µM. For the same compound, the ED50 [34] was 2.02 µM, the ED50 [35] was 7.18 µM and the ED50 [36] was 0.384 µM. For the same compound, the ED50 [37] was 1.13 µM, the ED50 [38] was 2.63 µM and the ED50 [39] was 0.0504 µM. It also gave an ED50 [40] of 0.073 µM, an ED50 [41] of 0.0149 µM and an ED50 [42] of 3.63 µM. The ED50 [43] was 0.061 µM, the ED50 [44] was 0.00261 µM and the ED50 [45] was 0.0562 µM. It also gave an ED50 [46] of 0.296 µM.

— ChEMBL document CHEMBL5649169 (ChemMedChem, 2018)
